One experiment concerns T47D cells. Kind of experiment: COPIA RTK activation in growth factor stimulated T47D cells. Conditions: T47D cells stimulated with EGF or HRG. Format: cell-based, human. As to the method: (§1) SKBr3, MDA-MB-468, T47D and BT474 cell lines were obtained from ATCC. Cells were grown in the following growth media in 100 mm tissue culture plates at 37° C. in 5% CO2: SKBr3 McCoy's 5A medium with 10% FBS, MDA-MB-468: DMEM, 10% FBS, BT474: DMEM, 10B FBS, T47D: RPMI 1640, 10% FBS, 0.2 U/ml bovine insulin. Cells were harvested at 70-80% confluency with gentle detachment process (trypsin treatment+subsequent inactivation) and were subsequently counted and washed with 1×PBS. Cell stimulation was performed with 100 uM EGF or 20 uM heregulin β or both in serum-free growth media for 5 min. Stimulated cells were washed with 1×PBS and then were lysed (lysis buffer: 50 mM Tris, pH 7.4, 150 mM NaCl, 1% Trition X-100 and 200 mM Na3VO4) and kept on ice for 30 min.
(§2) Slides were first rinsed two times with TBST (50 mM Tris/150 mM NaCl/0.1% Tween-20, pH 7.2-7.4) before blocking them with 80 ul of Whatman Blocking Buffer 1 hr at RT or O/N at 4 C. After the blocking process, slides were washed 2 times with TBST. […]

The subject of another experiment is MDA MB 468 cells. The experiment is described as follows: COPIA per-cell RTK activation in growth factor stimulated MDA-MB-468 cells. Type of experiment: cell-based, human. Conditions: MDA MB 468 cells stimulated with EGF. As to the method: as §1, §2
Experiment [1] has as its system ER-positive breast cancer. Conditions: cited from earlier work.
A further experiment has as its system VEGF. Conditions: with chemotherapy; patients with colorectal, breast, and lung cancers; cited from earlier work.

VEGF, sequence (P15692 207-311 limits assumed): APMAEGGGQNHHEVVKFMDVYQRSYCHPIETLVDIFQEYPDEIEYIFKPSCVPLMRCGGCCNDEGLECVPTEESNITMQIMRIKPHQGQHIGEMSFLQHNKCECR

As for “EGF: epidermal growth factor, stimulatory growth factor used to induce HER1 phosphorylation (NSDSECPLSHDGYCLHDGVCMYIEALDKYACNCVVGYIGERCQYRDLKWWELR; Epidermal growth factor; UniProt P01133 971-1023, looked up)”, in the experiment with T47D cells, the HER1 activation result was “resulted in both HER1 and HER2 activation”; the HER2 activation result was “resulted in both HER1 and HER2 activation”. Besides, in the experiment on MDA MB 468 cells, the “level of pHER1 per cell” value is reported as 992.5 RFU/cell.
Consider `CC/C(=C(\c1ccccc1)c1ccc(OCCN(C)C)cc1)c1ccccc1` [Tamoxifen], for which the “reduction in the odds of recurrence and mortality” value in experiment [1] (adjuvant therapy studies) was 40% to 50%. Further, the “patients with temporary remission” value in experiment [1] (patients with metastatic disease) is listed as 30% to 50%.
With Bevacizumab, the survival entry in the experiment on VEGF is reported as “improve survival”.

Source of the values: patent publication US9726669B2, “Biomarkers for determining sensitivity of breast cancer cells to HER2-targeted therapy” (PIERIAN HOLDINGS, INC., priority 2009, dated 2017).
